# What was measured:
# HEK293T cells = test: Cytotoxicity assay on HEK293 cells (PrestoBlue viability); format: cell-based, human; conditions: cell viability, 48 h; mean of six determinations, range in brackets; read-out: IC50 [µM], HEK 293T
# Experimental: HEK293T cells were seeded into a solid black flat bottom 96 well plate (2.5 × 10^4 cells/well) in 200 μL Dulbecco Modified Eagle Medium (DMEM) supplemented with 10% fetal bovine serum and 1% Pen/Strep (final concentration of 100 U/mL Penicillin and 100 μg/mL Streptomycin). Cells were incubated at 37 °C under 5% CO2. After 18 h the supernatant was removed and fresh DMEM containing serial dilutions of compounds was added. Compounds were solubilized in DMSO (final DMSO concentration in HEK293T culture was 0.5%.) Wells containing 0.5% DMSO served as a negative control. Plates were incubated for further 48 h at 37 °C under 5% CO2. To monitor cell viability the supernatant was removed and cells were incubated with 200 μL 10% PrestoBlue (Invitrogen) in PBS at 37 °C. After 30 min fluorescence (λex = 560 nm, λem = 590 nm) was measured in an EnVision multilable plate reader (Perkin Elmer, integration time 0.1 s/well). Data points were plotted into Graphpad Prism, normalized to the DMSO control and IC50 values were calculated using nonlinear regression.
# [1] = system: asexual erythrocytic stages of transgenic NF54-luc P. falciparum; test: Luciferase-based viability screening for antiplasmodial activity; format: cell-based, Plasmodium falciparum; conditions: 48 h
# Experimental: For the luciferase-based viability assays, asexual erythrocytic stages of transgenic NF54-luc P. falciparum were used. These parasites constitutively express high luciferase levels. The parasites were cultured as described previously. Parasite cultures with parasitaemia of 0.5–1% were dispensed in triplicate into white 96-well flat-bottom plates (each well contains 250 µL) (NUNC, Roskilde, Denmark) and incubated in the presence of 3 µM test compounds for 48 h (37 °C, 90% N2, 5% CO2, and 5% O2). 0.01% DMSO was included in the untreated infected RBC cultures as negative control, since the compounds stock initially was diluted in DMSO and each treatment well also contained 0.01% DMSO. Subsequently, 100 µL RPMI1640 media was removed from each well and a 100 µL volume of the Bright-Glo® substrate solution was added to each well. The resultant cleavage product of the reaction, light, was measured using a […] luminometer (Thermo), to ascertain viable parasites. Untreated cultures were used as negative controls and to calculate the inhibition rate (0% inhibition of parasite growth). Experiments were performed in triplicate and were repeated as a whole at least twice. Blasticidin (Sigma-Aldrich, St. Louis, MO, USA), used for selection of transfected parasites, was included as a positive control on each plate and gave > 90% inhibition of parasite growth at concentration 2 µg/mL. […] For active compounds IC50 values were determined from dose–response curves. Calculation of parasite growth inhibition, of the IC50 values and statistical analysis were carried out using GraphPad Prism Version 6.0b (GraphPad Software, Inc. San Diego, CA).
smiles,measurement,setting,value
CN(C)CCN(C)c1ccc(-c2c(C#N)c(N)nc3sc(C(=O)c4cccc(Cl)c4)c(N)c23)c(Cl)c1 [4h],IC50,HEK293T cells,5.56 µM
same,"% inhibition ± SD, PfNF54-Luc at 3 µM","[1]; 3 µM test compound, luciferase readout, ± SD",99.9 ± 0.1%
same,IC50,"[1]; from dose-response curves, read-out: IC50 [µM], PfNF54-Luc",1.2 µM

# Source: paper PMC6429710, “Structure–activity relationships in a series of antiplasmodial thieno[2,3-b]pyridines” (Malaria Journal, 2019)
